Test results reported in patent US11976059B2 (KOREA RESEARCH INSTITUTE OF CHEMICAL TECHNOLOGY, priority 2018, dated 2024).

Target: EGFR L858R/T790M/C797S mutant enzyme (Homo sapiens (Human), UniProt P00533, C797S/L858R/T790M)
Assay: EGFR mutant enzyme inhibition, HTRF system (Cisbio)
Assay type: biochemical
Details: ATP 1 mM, 37° C. for 2 hours
Protocol: In order to evaluate the inhibitory activity of the compound represented by formula 1 according to the present invention against EGFR mutation, the following experiment was performed.
The activity of the compound of the present invention against EGFR mutant enzyme was measured using the HTRF system of Cisbio Co. As an EGFR L858R/T790M/C797S mutant enzyme, a protein provided by SignalChem was purchased and used as an enzyme source.
The composition of the assay buffer used for the activity measurement was as follows: 50 mM Tris-HCl (pH 7.5), 100 mM NaCl, 7.5 mM MgCl2, 3 mM KCl, 0.01% Tween 20, 0.1% BSA, and 1 mM DTT. Herein, an enzyme reaction was performed using a peptide substrate labeled with ATP at the concentration of 1 mM and biotin at the concentration of 0.5 μM. The analysis of the EGFR activity inhibitory effect of the compound was performed according to the following analytical reaction recipe.
Component 1: 4 μl of EGFR mutant enzyme
Component 2: 2 μl of compound solution
Component 3: 4 μl of ATP and biotin-labeled peptide mixture
The enzyme reaction was initiated by mixing the component 1 and the component 2 first and then adding the component 3 thereto. After reacting the mixture at 37° C. for 2 hours, 10 μl of a measurement solution consisting of streptavidin-XL665 and europium-labeled anti-phosphotyrosine antibody provided by Cisbio was added to the enzyme reaction solution, followed by reaction at room temperature for 1 hour. Finally, the ratio of the fluorescence values at 615 nm and 665 nm was calculated using Envision equipment of Perkin-Elmer to quantitatively measure the enzyme activity and confirm the inhibitory ability of the compound. The values measured at 7 concentrations of the compound were analyzed using Prism program (version 5.01, Graphpad Software, Inc.), and the IC50 value, an index of the inhibitory ability of the compound, was calculated.

Sequence of EGFR L858R/T790M/C797S mutant enzyme (P00533 25-1210 T790M/C797S/L858R): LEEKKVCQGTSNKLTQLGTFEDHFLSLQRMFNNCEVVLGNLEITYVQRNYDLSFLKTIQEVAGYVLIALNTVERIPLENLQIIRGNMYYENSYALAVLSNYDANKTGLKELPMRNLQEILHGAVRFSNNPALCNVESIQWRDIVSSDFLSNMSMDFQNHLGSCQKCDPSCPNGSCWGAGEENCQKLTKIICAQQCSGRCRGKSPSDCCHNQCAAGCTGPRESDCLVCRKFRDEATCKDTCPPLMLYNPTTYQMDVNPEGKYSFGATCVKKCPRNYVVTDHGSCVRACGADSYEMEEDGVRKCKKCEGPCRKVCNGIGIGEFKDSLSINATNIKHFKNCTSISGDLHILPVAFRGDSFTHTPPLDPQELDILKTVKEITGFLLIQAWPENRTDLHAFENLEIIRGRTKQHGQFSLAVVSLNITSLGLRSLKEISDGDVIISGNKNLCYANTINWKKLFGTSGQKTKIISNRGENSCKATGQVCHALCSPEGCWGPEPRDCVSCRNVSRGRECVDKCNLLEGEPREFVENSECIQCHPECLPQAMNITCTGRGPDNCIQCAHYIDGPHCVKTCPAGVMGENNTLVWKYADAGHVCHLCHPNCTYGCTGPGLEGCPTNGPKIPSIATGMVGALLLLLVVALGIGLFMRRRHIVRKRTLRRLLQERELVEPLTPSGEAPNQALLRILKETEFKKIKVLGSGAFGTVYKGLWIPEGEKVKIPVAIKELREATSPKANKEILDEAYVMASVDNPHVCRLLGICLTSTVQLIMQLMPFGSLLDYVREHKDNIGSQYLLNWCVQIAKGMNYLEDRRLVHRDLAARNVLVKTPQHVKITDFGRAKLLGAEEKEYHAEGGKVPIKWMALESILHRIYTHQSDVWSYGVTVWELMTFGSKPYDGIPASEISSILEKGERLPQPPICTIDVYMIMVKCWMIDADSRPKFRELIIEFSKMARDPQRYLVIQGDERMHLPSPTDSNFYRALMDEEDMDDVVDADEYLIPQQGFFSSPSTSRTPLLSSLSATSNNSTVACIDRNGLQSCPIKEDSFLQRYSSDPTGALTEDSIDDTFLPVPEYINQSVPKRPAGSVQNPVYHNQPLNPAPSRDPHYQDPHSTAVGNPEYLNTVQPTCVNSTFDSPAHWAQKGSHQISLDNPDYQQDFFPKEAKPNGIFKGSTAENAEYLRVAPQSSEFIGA

O=C1c2cc(C3=CCNCC3)ccc2CN1[C@@H](c1cc2ccccc2[nH]1)c1ccccc1O [Example 34, (R)-2-((2-hydroxyphenyl)(1H-indole-2-yl)methyl)-6-(1,2,3,6-tetrahydropyridine-4-yl)isoindolin-1-one] gave an IC50 of 2900 nM.

Compound O=C1c2cc(C3=CCNCC3)ccc2CN1[C@@H](c1cc2ccccc2[nH]1)c1cc(F)ccc1O [Example 35, (R)-2-((5-fluoro-2-hydroxyphenyl)(1H-indole-2-yl)methyl)-6-(1,2,3,6-tetrahydropyridine-4-yl)isoindolin-1-one] has an IC50 of 730 nM.

For O=C1c2cc(C3=CCNCC3)ccc2CN1[C@@H](c1cc2ccccc2[nH]1)c1cc(Cl)ccc1O [Example 36, (R)-2-((5-chloro-2-hydroxyphenyl)(1H-indole-2-yl)methyl)-6-(1,2,3,6-tetrahydropyridine-4-yl)isoindolin-1-one], the IC50 was 2400 nM.

O=C1c2cc(N3CCNCC3)ccc2CN1[C@@H](c1cc2ccccc2[nH]1)c1cc(F)ccc1O [Example 37, (R)-2-((5-fluoro-2-hydroxyphenyl)(1H-indole-2-yl)methyl)-6-(piperazine-1-yl)isoindolin-1-one] showed an IC50 greater than 10000 nM.

CN1CCN(c2ccc3c(c2)C(=O)N([C@@H](c2cc4ccccc4[nH]2)c2cc(F)ccc2O)C3)CC1 [Example 38, (R)-2-((5-fluoro-2-hydroxyphenyl)(1H-indole-2-yl)methyl)-6-(4-methylpiperazine-1-yl)isoindolin-1-one] was tested, and the IC50 was 7600 nM.

O=C1c2cc(-c3ccc(N4CCOCC4)cc3)ccc2CN1C(c1nc2ccccc2[nH]1)c1cc(F)ccc1O (stereo not drawn) [Example 39, 2-((1H-benzo[d]imidazole-2-yl)(5-fluoro-2-hydroxyphenyl)methyl)-6-(4-morpholinophenyl)isoindolin-1-one] showed an IC50 of 960 nM.

Work on O=C1c2cc(-c3ccc(N4CCOCC4)cc3)ccc2CN1C(c1nc2ccccc2[nH]1)c1cc(Cl)ccc1O (stereo not drawn) [Example 40, 2-((1H-benzo[d]imidazole-2-yl)(5-chloro-2-hydroxyphenyl)methyl)-6-(4-morpholinophenyl)isoindolin-1-one] yielded an IC50 of 370 nM.

For O=C1c2cc(-c3ccc(-c4ccncc4)cc3)ccc2CN1C(c1nc2ccccc2[nH]1)c1cc(F)ccc1O (stereo not drawn) [Example 41, 2-((1H-benzo[d]imidazole-2-yl)(5-fluoro-2-hydroxyphenyl)methyl)-6-(4-(pyridine-4-yl)phenyl)isoindolin-1-one], the IC50 was 220 nM.

Compound O=C1c2cc(-c3ccc(-c4ccncc4)cc3)ccc2CN1C(c1nc2ccccc2[nH]1)c1cc(Cl)ccc1O (stereo not drawn) [Example 42, 2-((1H-benzo[d]imidazole-2-yl)(5-chloro-2-hydroxyphenyl)methyl)-6-(4-(pyridine-4-yl)phenyl)isoindolin-1-one] has an IC50 of 450 nM.

For CN1CCN(c2ccc(-c3ccc4c(c3)C(=O)N([C@@H](c3cc5ccccc5[nH]3)c3cc(F)ccc3O)C4)cc2)CC1 [Example 43, (R)-2-((5-fluoro-2-hydroxyphenyl)(1H-indole-2-yl)methyl)-6-(4-(4-methylpiperazine-1-yl)phenyl)isoindolin-1-one], the IC50 was 210 nM.

CN1CCN(c2ccc(-c3ccc4c(c3)C(=O)N([C@@H](c3cc5ccccc5[nH]3)c3cc(Cl)ccc3O)C4)cc2)CC1 [Example 44, (R)-2-((5-chloro-2-hydroxyphenyl)(1H-indole-2-yl)methyl)-6-(4-(4-methylpiperazine-1-yl)phenyl)isoindolin-1-one] gave an IC50 of 190 nM.

O=C1c2cc(-c3ccc(N4CCOCC4)cc3)ccc2CN1[C@@H](c1cc2ccccc2[nH]1)c1cc(F)ccc1O [Example 45, (R)-2-((5-fluoro-2-hydroxyphenyl)(1H-indole-2-yl)methyl)-6-(4-morpholinophenyl)isoindolin-1-one] gave an IC50 of 280 nM.

For O=C1c2cc(-c3ccc(N4CCOCC4)cc3)ccc2CN1[C@@H](c1cc2ccccc2[nH]1)c1cc(Cl)ccc1O [Example 46, (R)-2-((5-chloro-2-hydroxyphenyl)(1H-indole-2-yl)methyl)-6-(4-morpholinophenyl)isoindolin-1-one], the IC50 was 110 nM.

Work on O=C1c2cc(-c3ccc(-c4ccncc4)cc3)ccc2CN1[C@@H](c1cc2ccccc2[nH]1)c1cc(F)ccc1O [Example 47, (R)-2-((5-fluoro-2-hydroxyphenyl)(1H-indole-2-yl)methyl)-6-(4-(pyridine-4-yl)phenyl)isoindolin-1-one] yielded an IC50 of 85 nM.

O=C1c2cc(-c3ccc(-c4ccncc4)cc3)ccc2CN1[C@@H](c1cc2ccccc2[nH]1)c1cc(Cl)ccc1O [Example 48, (R)-2-((5-chloro-2-hydroxyphenyl)(1H-indole-2-yl)methyl)-6-(4-(pyridine-4-yl)phenyl)isoindolin-1-one] was tested, and the IC50 was greater than 10000 nM.

O=C1c2cc(-c3ccc(N4CCNCC4)cc3)ccc2CN1[C@@H](c1cc2cccnc2[nH]1)c1cc(F)ccc1O [Example 49, (R)-2-((5-fluoro-2-hydroxyphenyl)(1H-pyrrolo[2,3-b]pyridine-2-yl)methyl)-6-(4-(piperazine-4-yl)phenyl)isoindolin-1-one] gave an IC50 of 69 nM.

O=C1c2cc(-c3ccc(N4CCNCC4)cc3)ccc2CN1[C@@H](c1cc2cccnc2[nH]1)c1cc(Cl)ccc1O [Example 50, (R)-2-((5-chloro-2-hydroxyphenyl)(1H-pyrrolo[2,3-b]pyridine-2-yl)methyl)-6-(4-(piperazine-4-yl)phenyl)isoindolin-1-one] showed an IC50 of 420 nM.

O=C1c2cc(-c3ccc(N4CCNCC4)cc3)ccc2CN1[C@@H](c1cc2cc(F)ccc2[nH]1)c1cc(F)ccc1O [Example 51, (R)-2-((5-fluoro-1H-indole-2-yl)(5-fluoro-2-hydroxyphenyl)methyl)-6-(4-(piperazine-1-yl)phenyl)isoindolin-1-one] showed an IC50 of 650 nM.

O=C1c2cc(-c3ccc(C4=CCNCC4)cc3)ccc2CN1[C@@H](c1cc2cc(F)ccc2[nH]1)c1cc(F)ccc1O [Example 52, (R)-2-((5-fluoro-1H-indole-2-yl)(5-fluoro-2-hydroxyphenyl)methyl)-6-(4-(1,2,3,6-tetrahydropyridine-4-yl)phenyl)isoindolin-1-one] gave an IC50 greater than 10000 nM.

With O=C1c2cc(-c3ccc(N4CCNCC4)cc3)ccc2CN1[C@H](c1cc2ccccc2[nH]1)c1cc(F)ccc1O [Example 53, (S)-2-((5-fluoro-2-hydroxyphenyl)(1H-indole-2-yl)methyl)-6-(4-(piperazine-1-yl)phenyl)isoindolin-1-one] the IC50 was 120 nM.

Work on CC(=O)N1CCN(c2ccc(-c3ccc4c(c3)C(=O)N([C@@H](c3cc5ccccc5[nH]3)c3cc(F)ccc3O)C4)cc2)CC1 [Example 54, (R)-6-(4-(4-acetylpiperazine-1-yl)phenyl)-2-((5-fluoro-2-hydroxyphenyl)(1H-indole-2-yl)methyl)-isoindolin-1-one] yielded an IC50 of 240 nM.

Compound CN1CCN(C2CCN(c3ccc(-c4ccc5c(c4)C(=O)N([C@@H](c4cc6ccccc6[nH]4)c4cc(F)ccc4O)C5)cc3)CC2)CC1 [Example 57, (R)-2-((5-fluoro-2-hydroxyphenyl)(1H-indole-2-yl)methyl)-6-(4-(4-(4-methylpiperazine-1-yl)piperidine-1-yl)phenyl)isoindolin-1-one] has an IC50 of 40 nM.

With CN1CCN(C2CCN(c3ccc(-c4ccc5c(c4)C(=O)N([C@@H](c4cc6ccccc6[nH]4)c4cc(Cl)ccc4O)C5)cc3)CC2)CC1 [Example 58, (R)-2-((5-chloro-2-hydroxyphenyl)(1H-indole-2-yl)methyl)-6-(4-(4-(4-methylpiperazine-1-yl)piperidine-1-yl)phenyl)isoindolin-1-one] the IC50 was 3700 nM.

For O=C1c2cc(-c3ccc(N4CCC(N5CCNCC5)CC4)cc3)ccc2CN1[C@@H](c1cc2ccccc2[nH]1)c1cc(F)ccc1O [Example 59, (R)-2-((5-fluoro-2-hydroxyphenyl)(1H-indole-2-yl)methyl)-6-(4-(4-(piperazine-1-yl)piperidine-1-yl)phenyl)isoindolin-1-one], the IC50 was 32 nM.

Work on O=C1c2cc(-c3ccc(N4CCC(N5CCNCC5)CC4)cc3)ccc2CN1[C@@H](c1cc2ccccc2[nH]1)c1cc(Cl)ccc1O [Example 60, (R)-2-((5-chloro-2-hydroxyphenyl)(1H-indole-2-yl)methyl)-6-(4-(4-(piperazine-1-yl)piperidine-1-yl)phenyl)isoindolin-1-one] yielded an IC50 of 190 nM.

Work on CN(C)C1CCN(c2ccc(-c3ccc4c(c3)C(=O)N([C@@H](c3cc5ccccc5[nH]3)c3cc(F)ccc3O)C4)cc2)CC1 [Example 61, (R)-6-(4-(4-(dimethylamino)piperidine-1-yl)phenyl)-2-((5-fluoro-2-hydroxyphenyl)(1H-indole-2-yl)methyl)-isoindolin-1-one] yielded an IC50 of 66 nM.

CN(C)C1CCN(c2ccc(-c3ccc4c(c3)C(=O)N([C@@H](c3cc5ccccc5[nH]3)c3cc(Cl)ccc3O)C4)cc2)CC1 [Example 62, (R)-2-((5-chloro-2-hydroxyphenyl)(1H-indole-2-yl)methyl)-6-(4-(4-(dimethylamino)piperidine-1-yl)phenyl)-isoindolin-1-one] showed an IC50 of 2200 nM.
